Assay results taken from patent US5519021A, “Benzoxazinones as inhibitors of HIV reverse transcriptase” (priority 1995, dated 1996).

How the values were obtained:
HIV-1 (wild-type) = assay: Cell spread assay (MT-4 T-lymphoid cells); assay type: cell-based; conditions: Human immunodeficiency virus 1, MT4, 72 h; WT virus, MT-4 cells, N = 2; read-out: CIC95 (μM) WT
Protocol: (§1) Inhibition of the spread of HIV in cell culture was measured according to Nunberg, J. H. et al., J. Virol. 65, 4887 (1991 ). In this assay, MT-4 T-lymphoid cells were infected with HIV-1 (wild-type, unless otherwise indicated) by using a predetermined inoculum, and cultures were incubated for 24 h. At this time, ≤1% of the cells were positive by indirect immunofluorescence. Cells were then extensively washed and distributed into 96-well culture dishes. Serial twofold dilutions of inhibitor were added to the wells, and cultures were continued for 3 additional days. At 4 days postinfection, 100% of the cells in control cultures were infected. HIV-1 p24 accumulation was directly correlated with virus spread. The cell culture inhibitory concentration was defined as the inhibitor concentration in nanomoles/liter which reduced the spread of infection by at least 95%, or CIC95.

HIV-1 Y181C = assay: Cell spread assay, Y181C mutant; assay type: cell-based; conditions: MT-4 cells
Protocol: as §1
(§2) *Mutants K103N and Y181C are drugresistant HIV1 reverse transcriptases. D

HIV-1 DM (double mutant) = assay: Cell spread assay, double mutant (DM); assay type: cell-based; conditions: MT-4 cells
Protocol: as §1, §2
is the double mutant, as discussed in the reverse transcriptase assay. RT

[1] = molecular target: T1, reverse transcriptase of HIV2 (Human immunodeficiency virus type 2 subtype A, UniProt P04584); assay: Reverse transcriptase assay, RT-2; assay type: biochemical
T1 construct: is the reverse transcriptase of HIV2
Protocol: The assay measures the incorporation of tritiated deoxyguanosine monophosphate by recombinant HIV reverse transcriptase (HIV RTR) (or other RT) into acid-precipitable cDNA at the Km values of dGTP and poly r(C).cndot.oligo d(G)12-18.
The assays were carried out in 55 mM Tris (pH 8.2)-30 mM KCl-30 mM MgCl2 -1 mM dithiothreitol-20 μg of rC:dG 12-18 (Pharmacia) per ml-8 mM [^3 H]dGTP (New England Nuclear)-0.01% Triton X-100-50 mM ethylene glycol-bis(β-amino-ethyl ether)-N,N,N',N'-tetraacetic acid (EGTA)-1 mg of bovine serum albumin per ml. After 60 min of incubation at 37° C., acid-precipitable material was collected onto glass fiber filters by using a semiautomatic cell harvester. Bacterial cell extracts containing RT were diluted to within the linear range of the assay, and activity was determined in the presence and absence of inhibitor. Purified HIV-1 RT heterodimer produced in E. coli also served as a control. Results are determined as inhibitor concentration to give 50% inhibition (IC50 wt), in nanomoles/liter.
is the reverse transcriptase of HIV2.

[2] = Protein binding (HPLC method); assay type: in vitro ADME; conditions: Normal Human Plasma (HPLC Method)
From the text: Protein Binding: 98.0% Normal Human Plasma (HPLC Method)

HIV-1 K103N = assay: Cell spread assay, K103N mutant; assay type: cell-based; conditions: MT-4 cells
Protocol: as §1, §2

T1 sequence (P04584 613-1171): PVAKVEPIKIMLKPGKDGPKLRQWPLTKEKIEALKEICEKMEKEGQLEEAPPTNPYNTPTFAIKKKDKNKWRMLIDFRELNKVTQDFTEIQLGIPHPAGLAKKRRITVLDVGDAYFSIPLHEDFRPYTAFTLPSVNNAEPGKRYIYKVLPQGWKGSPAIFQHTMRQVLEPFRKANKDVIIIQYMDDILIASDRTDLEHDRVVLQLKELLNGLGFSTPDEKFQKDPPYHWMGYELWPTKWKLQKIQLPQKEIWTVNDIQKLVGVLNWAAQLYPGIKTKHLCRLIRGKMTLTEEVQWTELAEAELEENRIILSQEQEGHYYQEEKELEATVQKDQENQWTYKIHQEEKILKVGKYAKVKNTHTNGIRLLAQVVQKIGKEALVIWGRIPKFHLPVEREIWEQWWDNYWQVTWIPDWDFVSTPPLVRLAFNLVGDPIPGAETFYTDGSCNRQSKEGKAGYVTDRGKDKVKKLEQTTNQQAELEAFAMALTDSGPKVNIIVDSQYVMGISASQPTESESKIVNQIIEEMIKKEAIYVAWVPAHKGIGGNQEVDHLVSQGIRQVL
T1 sequence (P04584 613-1051): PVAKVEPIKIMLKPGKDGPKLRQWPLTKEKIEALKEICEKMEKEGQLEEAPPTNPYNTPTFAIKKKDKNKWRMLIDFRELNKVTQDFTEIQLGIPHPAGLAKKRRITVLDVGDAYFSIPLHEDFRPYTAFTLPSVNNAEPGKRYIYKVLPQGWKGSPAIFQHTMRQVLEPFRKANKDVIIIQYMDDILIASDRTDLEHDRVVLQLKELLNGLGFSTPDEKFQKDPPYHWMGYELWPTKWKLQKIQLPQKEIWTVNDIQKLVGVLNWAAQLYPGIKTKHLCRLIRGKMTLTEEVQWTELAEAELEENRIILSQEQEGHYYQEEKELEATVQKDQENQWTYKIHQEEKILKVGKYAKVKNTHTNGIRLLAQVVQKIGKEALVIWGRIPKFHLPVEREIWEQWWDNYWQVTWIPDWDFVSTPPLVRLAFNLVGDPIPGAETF

Which IC95 (HIV-1 (wild-type)) does the source give for `O=C1Nc2ccc(Cl)cc2[C@@](C#CC2CC2)(C(F)(F)F)O1` [37.2(-), (-) 6-Chloro-4-cyclopropylethynyl-4-trifluoromethyl-1,4-dihydro-2H-3,1-benzoxazin-2-one] here?
Its IC95 is less than 0.006 µM.

What about the “CIC95 (μM) Y181C” value (HIV-1 Y181C) of the same compound?
The value was less than 0.025 µM.

And the “CIC95 (μM) DM” value (HIV-1 DM (double mutant))?
The value was 0.400 µM.

And the IC50 [1]?
Its IC50 is 80.8 µM.

And the fraction unbound [2]?
Its fraction unbound is 0.02.

What about the “CIC95 (μM) K103N” value (HIV-1 K103N) of the same compound?
The value was 0.100 µM.
